Experiments:
Assay in all cases: TEVC in Xenopus oocytes
Format in all cases: cell-based
K2P2.1 (TREK-1) S131A = biological target: T1, K2P2.1 (TREK-1) S131A (Mus musculus, UniProt P97438, S146A); conditions: 20 μM, 0 mV
T1 construct: expressed in transfected cells; host or cells: Xenopus laevis oocytes injected with mRNA
T1 sequence (P97438 1-411 isoform P97438-2 S131A): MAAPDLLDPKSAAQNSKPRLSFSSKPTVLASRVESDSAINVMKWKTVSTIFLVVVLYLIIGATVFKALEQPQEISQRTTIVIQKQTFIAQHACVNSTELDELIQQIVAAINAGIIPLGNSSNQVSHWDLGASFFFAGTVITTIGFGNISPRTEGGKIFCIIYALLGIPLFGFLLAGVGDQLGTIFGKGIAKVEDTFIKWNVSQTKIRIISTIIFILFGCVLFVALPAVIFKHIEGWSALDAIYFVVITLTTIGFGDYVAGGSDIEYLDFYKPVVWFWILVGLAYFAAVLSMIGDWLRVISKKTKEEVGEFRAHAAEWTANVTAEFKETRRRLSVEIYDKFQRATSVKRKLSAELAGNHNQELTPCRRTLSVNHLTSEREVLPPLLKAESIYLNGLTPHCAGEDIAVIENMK

K2P10.1 (TREK-2)^CG* = biological target: T2, K2P10.1 (TREK-2)^CG* (Mus musculus, UniProt Q8BUW1, S153C); conditions: 20 μM, Xenopus oocytes
T2 construct: Modified TREK-2 from Mus musculus; expressed in transfected cells; host or cells: Xenopus laevis oocytes injected with mRNA
T2 sequence (Q8BUW1 with tags, fused parts or gaps S153C): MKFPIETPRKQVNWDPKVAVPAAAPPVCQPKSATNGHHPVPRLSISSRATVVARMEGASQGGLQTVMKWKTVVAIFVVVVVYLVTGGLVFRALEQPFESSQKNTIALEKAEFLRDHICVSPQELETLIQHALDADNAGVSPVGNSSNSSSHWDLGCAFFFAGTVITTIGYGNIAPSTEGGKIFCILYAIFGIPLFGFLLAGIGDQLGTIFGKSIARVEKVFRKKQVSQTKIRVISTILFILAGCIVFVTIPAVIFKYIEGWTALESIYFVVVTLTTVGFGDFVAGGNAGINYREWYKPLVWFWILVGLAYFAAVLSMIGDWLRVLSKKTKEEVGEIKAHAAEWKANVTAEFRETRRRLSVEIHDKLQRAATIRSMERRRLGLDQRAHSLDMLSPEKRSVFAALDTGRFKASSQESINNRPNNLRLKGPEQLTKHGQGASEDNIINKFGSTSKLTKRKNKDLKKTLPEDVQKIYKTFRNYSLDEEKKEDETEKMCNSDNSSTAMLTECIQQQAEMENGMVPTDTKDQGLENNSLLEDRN

K2P18.1 (TRESK)^CG* = biological target: T3, K2P18.1 (TRESK)^CG* (Mus musculus, UniProt Q6VV64, S116C); conditions: 20 μM
T3 construct: expressed in transfected cells; host or cells: Xenopus laevis oocytes injected with mRNA
T3 sequence (Q6VV64 1-394 S116C): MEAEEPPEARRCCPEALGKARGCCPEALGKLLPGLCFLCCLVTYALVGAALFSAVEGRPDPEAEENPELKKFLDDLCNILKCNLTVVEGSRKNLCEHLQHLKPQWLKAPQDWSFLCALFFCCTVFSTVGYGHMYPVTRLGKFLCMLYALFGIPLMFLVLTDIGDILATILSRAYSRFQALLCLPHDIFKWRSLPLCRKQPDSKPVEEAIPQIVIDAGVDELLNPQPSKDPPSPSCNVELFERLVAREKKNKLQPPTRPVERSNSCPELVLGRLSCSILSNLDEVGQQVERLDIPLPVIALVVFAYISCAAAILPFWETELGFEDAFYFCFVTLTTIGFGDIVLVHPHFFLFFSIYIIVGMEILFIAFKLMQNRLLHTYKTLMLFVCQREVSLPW

| Fold-activation (I activator/I control) (K2P2.1 (TREK-1) S131A) | Fold-activation (I activator/I control) (K2P10.1 (TREK-2)^CG*; 0 mV) | Reversibility of activation (K2P10.1 (TREK-2)^CG*) | Activation of channel (K2P18.1 (TRESK)^CG*) | Compound |
| --- | --- | --- | --- | --- |
| 6.8 fold | – | – | – | CS(=O)(=O)Nc1ccc(C(=O)NCc2ccc(Cl)cc2Cl)cc1 [ML335, reference compound] |
| – | 18±2 fold | irreversibly activated | not activated | O=C(NCc1ccc(Cl)cc1Cl)c1ccc(N2C(=O)C=CC2=O)cc1 [CAT335] |
